Experimental data from patent publication US10202364B2, “Forms and compositions of an ERK inhibitor” (Celgene CAR LLC, priority 2014, dated 2019).
Where two headings read alike, the source gives them in different places.

Columns and labels:
[1] = Phosphate interconversions from polymorph screen (slurries, XRPD); assay type: physicochemical; details: RT, 5 days
Description: Phosphate Interconversions

[2] = Solubility in water at ambient temperature; assay type: physicochemical; details: for pH at 48 hrs: pH of the solubility sample in water at 48 hrs; for Conc. (μg/mL) at 24 hours / Conc. (μg/mL) at 48 hours: water, ambient temperature, free base-equivalent value, HPLC/UV; for Conc. (μg/mL) at 24 hours: shaken 24 hours; for Conc. (μg/mL) at 48 hours: shaken 48 hours
Description: Each of compounds 1 through 9 were weighed into separate 8 mL clear glass vials. After addition of 3.2 mL of water, the vials were capped and shaken on an orbital shaker at 300 RPM at ambient temperature for 24 hours. The samples were removed from the shaker and the pH of each was measured using a calibrated pH meter. Next, a portion of the each sample was withdrawn and filtered using a PVDF-membrane syringe filter. The filtrate was analyzed using HPLC/UV with appropriate dilution. The solubility was reported as free base-equivalent value because the free base was used as the standard for HPLC analysis. The rest of the samples were shaken for another 24 hours for 48-hour solubility measurement using the same procedure. After the 48-hour solubility tests were run, the solid residues were recovered through filtration using 0.2 μm Nylon-membrane centrifuge tube filters at 14000 RPM for 5 min and analyzed using XRPD.
For the bis-phosphate complex and bis-sulfate salt, measurements were only performed at the 24-hour time point.

[3] = Single oral dose pharmacokinetic (PK) study in dogs, fasted and fed; assay type: in vivo; details: 15 mg/kg oral suspension; for AUC(0-t) / Cmax: both sexes, dog, in vivo, po, 15 mg/kg
Description: The pharmacokinetics of compound 1 (free base, administered to dosing group 1), compound 2 (phosphate salt, administered to dosing group 4), compound 4 (hydrochloride salt, administered to dosing group 2), compound 5 (bromide salt, administered to dosing group 5), and compound 6 (sulfate salt, administered to dosing group 3) were evaluated in dogs (2/sex/group) in a parallel design study. In addition, the effect of food on the systemic exposure to compounds 1, 2, 4, 5 and 6 was also evaluated. Compounds 1, 2, 4, 5 and 6 were orally administered at 15 mg/kg to dogs in a fasted state (overnight fast) on day 1 and administered under fed conditions (a meal was provided one hour prior to dosing) on day 9. Doses were administered as a suspension in 5% Captisol/0.2% Tween 80/0.05M Citrate buffer (compound 1) and 5% Captisol/0.2% Tween (compounds 2, 4, 5 and 6). Animals were habituated (days 2 to 8) to consume their entire daily ration (˜400 g) in 1 hour. Pharmacokinetic samples were collected on days 1 and 9 at 0, 0.5, 1, 2, 4, 6, 8, 12, and 24 hours after dosing.

[4] = Free base competitive slurries / form conversion (XRPD and DSC); assay type: physicochemical; details: compound 1 free base, stirred in methanol at room temperature for 24 hours
Description: Free Base Competitive Slurries:
Three competitive slurry experiments were performed:
1: Form A (20.0 mg)+Form C (20.4 mg) in 0.4 ml ethyl acetate
2: Form B (15.7 mg)+Form C (15.6 mg) in 0.3 ml ethyl acetate
3: Form A (13.3 mg)+Form B (11.5 mg) in 0.3 ml ethyl acetate
The three slurries were stirred vigorously for three days. Solids were then filtered and dried.
About 20 mg Form C was stirred in methanol (˜2 mL) at room temperature for 24 hours. Solids were filtered and dried.

[5] = test system: one or both of ERK1 and ERK2 kinases; details: see Table A of the '230 publication; cited from earlier work
[6] = Hygroscopicity by Dynamic Vapor Sorption (DVS); assay type: physicochemical; details: at 95% relative humidity
Description: Hygroscopicity was determined on a Surface Measurement Systems DVS-1 or DVS-Advantage Dynamic Vapor Sorption analyzer. A typical sample size of 5 to 20 mg was loaded into the DVS instrument sample pan and the sample was analyzed on a DVS automated sorption analyzer at room temperature. The relative humidity (RH) was increased from 0 or 5% to 90 or 95% RH at 5 or 10% RH steps. The RH was then decreased in a similar manner to accomplish a full absorption/desorption cycle. In some cases a second absorption/desorption cycle was performed.

[7] = fasted, day 1, mean, read-out: AUClast, Day 1 (Fasted)
[8] = fasted, day 1, mean, read-out: Cmax, Day 1 (Fasted)
[9] = fed, day 9, mean, read-out: AUClast, Day 9 (Fed)
[10] = fed, day 9, mean, read-out: Cmax, Day 9 (Fed)

SMILES: C=CC(=O)Nc1cc(C)ccc1Nc1nc(Nc2cc(OC)ncc2C)ncc1C(F)(F)F.O=P(O)(O)O [Form B]
- XRPD Result ([1]; slurry in EtOH): Form A + free base
- XRPD Result ([1]; slurry in MeCN): Form A
- XRPD Result ([1]; slurry in MeCN/water (1:1)): free base (Form D)
- XRPD Result ([1]; slurry in MeOH): free base (Form B)
- XRPD Result ([1]; slurry in acetone): Form A

SMILES: C=CC(=O)Nc1cc(C)ccc1Nc1nc(Nc2cc(OC)ncc2C)ncc1C(F)(F)F [Compound 6]
- pH at 48 hrs [2]: 1.98
- Conc. (μg/mL) at 24 hours [2]: 560.02 µg/mL
- Conc. (μg/mL) at 48 hours [2]: 409.83 µg/mL

SMILES: Br.C=CC(=O)Nc1cc(C)ccc1Nc1nc(Nc2cc(OC)ncc2C)ncc1C(F)(F)F [Compound 5]
- pH at 48 hrs [2]: 2.27
- Conc. (μg/mL) at 24 hours [2]: 190.63 µg/mL
- Conc. (μg/mL) at 48 hours [2]: 207.42 µg/mL

SMILES: Br.C=CC(=O)Nc1cc(C)ccc1Nc1nc(Nc2cc(OC)ncc2C)ncc1C(F)(F)F [Compound 5, Form A]
- AUC(0-t) [3, 7]: 1680 ng·h/mL
- Cmax [3, 8]: 0.393 µg/mL
- AUC(0-t) [3, 9]: 5030 ng·h/mL
- Cmax [3, 10]: 0.826 µg/mL

SMILES: C=CC(=O)Nc1cc(C)ccc1Nc1nc(Nc2cc(OC)ncc2C)ncc1C(F)(F)F.Cc1ccc(S(=O)(=O)O)cc1 [Compound 8]
- pH at 48 hrs [2]: 2.00
- Conc. (μg/mL) at 24 hours [2]: 218.34 µg/mL
- Conc. (μg/mL) at 48 hours [2]: 184.83 µg/mL

SMILES: C=CC(=O)Nc1cc(C)ccc1Nc1nc(Nc2cc(OC)ncc2C)ncc1C(F)(F)F [Compound 6, Form A]
- AUClast, Day 1 (Fasted) ([3]; fasted, day 1, mean): 1120 ng·h/mL
- Cmax, Day 1 (Fasted) ([3]; fasted, day 1, mean): 0.364 µg/mL
- AUClast, Day 9 (Fed) ([3]; fed, day 9, mean): 5590 ng·h/mL
- Cmax, Day 9 (Fed) ([3]; fed, day 9, mean): 0.74 µg/mL

SMILES: C=CC(=O)Nc1cc(C)ccc1Nc1nc(Nc2cc(OC)ncc2C)ncc1C(F)(F)F [Compound 1, Form C, N-(2-((2-((2-methoxy-5-methylpyridin-4-yl)amino)-5-(trifluoromethyl)pyrimidin-4-yl)amino)-5-methylphenyl)acrylamide]
- AUClast, Day 1 (Fasted) ([3]; fasted, day 1, mean): 286 ng·h/mL
- Cmax, Day 1 (Fasted) ([3]; fasted, day 1, mean): 0.0981 µg/mL
- AUClast, Day 9 (Fed) ([3]; fed, day 9, mean): 1890 ng·h/mL
- Cmax, Day 9 (Fed) ([3]; fed, day 9, mean): 0.293 µg/mL
- form after slurry (XRPD and DSC) [4]: converted to Form B

SMILES: C=CC(=O)Nc1cc(C)ccc1Nc1nc(Nc2cc(OC)ncc2C)ncc1C(F)(F)F.O=P(O)(O)O [Compound 2]
- pH at 48 hrs [2]: 2.48
- Conc. (μg/mL) at 24 hours [2]: 19.40 µg/mL
- Conc. (μg/mL) at 48 hours [2]: 91.69 µg/mL

SMILES: C=CC(=O)Nc1cc(C)ccc1Nc1nc(Nc2cc(OC)ncc2C)ncc1C(F)(F)F [Compound 7]
- Conc. (μg/mL) at 24 hours [2]: 1170 µg/mL

SMILES: C=CC(=O)Nc1cc(C)ccc1Nc1nc(Nc2cc(OC)ncc2C)ncc1C(F)(F)F [Compound 1, N-(2-((2-((2-methoxy-5-methylpyridin-4-yl)amino)-5-(trifluoromethyl)pyrimidin-4-yl)amino)-5-methylphenyl)acrylamide]
- pH at 48 hrs [2]: 6.33
- Conc. (μg/mL) at 24 hours [2]: 0.07 µg/mL
- Conc. (μg/mL) at 48 hours [2]: 0.05 µg/mL
- inhibition of one or both of ERK1 and ERK2 kinases [5]: covalent, irreversible inhibition

SMILES: C=CC(=O)Nc1cc(C)ccc1Nc1nc(Nc2cc(OC)ncc2C)ncc1C(F)(F)F [Compound 3]
- Conc. (μg/mL) at 24 hours [2]: 113 µg/mL

SMILES: C=CC(=O)Nc1cc(C)ccc1Nc1nc(Nc2cc(OC)ncc2C)ncc1C(F)(F)F.Cl [Compound 4]
- pH at 48 hrs [2]: 2.29
- Conc. (μg/mL) at 24 hours [2]: 162.33 µg/mL
- Conc. (μg/mL) at 48 hours [2]: 134.08 µg/mL

SMILES: C=CC(=O)Nc1cc(C)ccc1Nc1nc(Nc2cc(OC)ncc2C)ncc1C(F)(F)F.O=P(O)(O)O [Compound 2, Form A]
- AUC(0-t) [3, 7]: 1080 ng·h/mL
- Cmax [3, 8]: 0.345 µg/mL
- AUC(0-t) [3, 9]: 3880 ng·h/mL
- Cmax [3, 10]: 0.79 µg/mL
- water uptake [6]: Up to 3.8%

SMILES: C=CC(=O)Nc1cc(C)ccc1Nc1nc(Nc2cc(OC)ncc2C)ncc1C(F)(F)F.Cl [Compound 4, Form A]
- AUC(0-t) [3, 7]: 856 ng·h/mL
- Cmax [3, 8]: 0.323 µg/mL
- AUC(0-t) [3, 9]: 3350 ng·h/mL
- Cmax [3, 10]: 0.818 µg/mL

SMILES: C=CC(=O)Nc1cc(C)ccc1Nc1nc(Nc2cc(OC)ncc2C)ncc1C(F)(F)F.O=S(=O)(O)c1ccccc1 [Compound 9]
- pH at 48 hrs [2]: 2.10
- Conc. (μg/mL) at 24 hours [2]: 173.63 µg/mL
- Conc. (μg/mL) at 48 hours [2]: 143.49 µg/mL
